US8268842B2, “Fused ring 4-oxopyrimidine derivative” (MSD K.K., priority 2004, dated 2012)
Where two headings read alike, the source gives them in different places.

Tests used:
[1] = target: T1, human histamine H3 receptor (Homo sapiens, UniProt Q9Y5N1); assay: Histamine analog coupling inhibition test; assay type: binding
T1 construct: expressed in transfected cells; host or cells: HEK293 and CHO-K1
From the text: A cDNA sequence [International Patent Application WO00/3916 Specification No. 4] which encodes human histamine H3 receptor was cloned using the expression vectors pCR2.1, pEF1x (product of Invitrogen), and pCI-neo (product of Promega Inc.). The expression vector obtained was transfected to the host cells, HEK293 and CHO-K1 (American type culture collection), using the cationic lipid method [Proceedings of the National Academy of Sciences of the United States of America, Vol. 84, p. 7413 (1987), and histamine H3 receptor expression cells were thus obtained.
A film preparation made from the cells which represented the histamine H3 receptor, the test compound (the compound of Example 1) and 20,000 cpm of [3H]N-α-methylhistamine (product of NEN) were incubated in an assay buffer solution (50 mM Tris buffer solution, pH 7.4) at 25° C. for 2 hours, and filtered on a glass filter GF/C. After washing by 50 mM Tris buffer solution, pH7.4, the radioactivity on the glass filter was found. Non-specific linkages were measured in the presence of 10 microM thioperamide (product of SIGAM), and the 50% inhibition concentration (IC50 value) of the test compound with respect to specific N-α-methylhistamine linkages was found (Molecular Pharmacology, Vol. 55, p. 1101 (1999)).

[2] = target: T2, histamine H3 receptor (Rattus norvegicus, UniProt Q9QYN8); assay: Antagonism test of drinking behavior induced by R-α-methylhistamine, a histamine H3 receptor selective agonist; assay type: in vivo; conditions: male SD rat, 10 mg/kg oral 2 hours before R-α-methylhistamine, measured 1 hour after
T2 construct: from tissue; host or cells: living male SD rat (brain, third ventricle agonist administration)
T2 sequence (Q9QYN8 whole entry): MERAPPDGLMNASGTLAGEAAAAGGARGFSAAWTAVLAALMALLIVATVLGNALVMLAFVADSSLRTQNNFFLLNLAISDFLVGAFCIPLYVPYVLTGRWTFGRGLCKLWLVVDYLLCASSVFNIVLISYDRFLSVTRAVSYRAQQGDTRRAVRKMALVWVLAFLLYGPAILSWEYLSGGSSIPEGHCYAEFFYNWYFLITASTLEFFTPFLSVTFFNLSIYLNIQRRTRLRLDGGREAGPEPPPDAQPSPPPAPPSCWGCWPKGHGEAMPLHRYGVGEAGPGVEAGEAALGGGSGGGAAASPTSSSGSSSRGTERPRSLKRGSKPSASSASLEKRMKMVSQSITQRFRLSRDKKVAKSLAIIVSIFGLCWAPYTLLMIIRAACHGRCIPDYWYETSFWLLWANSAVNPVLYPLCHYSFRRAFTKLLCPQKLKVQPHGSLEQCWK
Method: Under ketamine/xylazine anaesthesia (74 mg/kg and 11 mg/kg intraperitoneal single-dose administration), a chronic guide cannula (26 gauge, length 11 mm) was inserted in the ventriculus tertius of a male SD rat (7-10 weeks old, 200-300 g) using a brain stereotaxis apparatus, and fixed by dental resin. The position of the tip of the guide cannula was 2.2 mm back from the bregma, and at a depth of 8 mm from the skull surface on the median line. After about 1 week convalescence, R-α-methylhistamine (0.3 μg/1 μL/head, 30% propylene glycol solution) was administered to the ventriculus tertius. The test compound (the compound of Example 1) suspended in 0.5% methylcellulose aqueous solution was administered orally 2 hours before the R-α-methylhistamine administration, and the drinking water amount was measured 1 hour after R-α-methylhistamine administration.

[3] = Kinetic test (plasma concentration after oral or intravenous administration); assay type: in vivo; conditions: rat, SD type male rats, fasted overnight
Method: The test compound (the compound of Example 1) was administered orally or intravenously to SD type male rats (7-10 weeks old, 200-400 g) which had abstained from food overnight, and about 100 μL of blood was collected from a caudal vein using a heparinized capillary tube at a predetermined time. The blood was centrifuged (4° C., 6000 rpm, 10 minutes), and plasma was obtained. Three times the amount of ethanol (containing an internal reference) was added to the plasma, stirred, left for 20 minutes at −20° C., and centrifuged (4° C., 10,000 rpm, 10 minutes). The supernatant liquid was analyzed by LC/MS/MS, and the plasma concentration was measured by the relative calibration curve method.

[4] = Brain/cerebrospinal fluid activity test; assay type: in vivo, rat; conditions: SD type male rats, 2 hours after oral administration (10 mg/kg); for concentration at 2 h: rat
Method: The test compound (the compound of Example 1) was administered orally or intravenously to SD type male rats (7-10 weeks old, 200-400 g), and exsanguination was performed from the abdominal aorta under ether anesthesia using a heparin treatment syringe at a predetermined time. The skin at the back of the head was cut open, pierced with a 30G dental needle between the cervical vertebrae, and inserted into the subarachnoid space. 50-100 μL of cerebrospinal fluid was extracted by a 1 mL syringe via a tube connected to the 30G needle, and the brain was extracted. A blood sample was centrifuged (4° C., 6000 rpm, 10 minutes), and three times the amount of ethanol (containing an internal reference) was added to the plasma and stirred. 2 mL of water was added to a brain sample, homogenized, a part was removed, and three times the amount of ethanol (containing an internal reference) was added and stirred. The cerebrospinal fluid was taken, three times the amount of ethanol (containing an internal reference) was added, and stirred. The above sample was left at −20° C. for 20 minutes, centrifuged (4° C., 12,000 g, 10 minutes), the supernatant liquid was analyzed by LC/MS/MS, and the concentration in plasma, brain and cerebrospinal fluid was measured by the relative calibration curve method.

T1 sequence (Q9Y5N1 whole entry): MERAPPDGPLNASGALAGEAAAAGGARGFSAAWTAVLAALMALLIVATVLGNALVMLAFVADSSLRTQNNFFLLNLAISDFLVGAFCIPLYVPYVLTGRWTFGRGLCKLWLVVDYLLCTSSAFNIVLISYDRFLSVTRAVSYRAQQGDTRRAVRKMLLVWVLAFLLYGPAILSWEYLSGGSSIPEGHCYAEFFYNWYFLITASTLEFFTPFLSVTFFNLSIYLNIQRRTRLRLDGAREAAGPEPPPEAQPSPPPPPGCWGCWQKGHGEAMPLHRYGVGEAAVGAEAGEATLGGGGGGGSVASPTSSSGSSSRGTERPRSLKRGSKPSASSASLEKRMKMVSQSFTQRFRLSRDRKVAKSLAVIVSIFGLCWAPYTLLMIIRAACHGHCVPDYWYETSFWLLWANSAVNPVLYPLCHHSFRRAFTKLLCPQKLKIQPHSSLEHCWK

melting point [°C]	Structure (SMILES)	further results
245 to 252	CCc1nc2ncccc2c(=O)n1-c1ccc(OCCCN2CCC[C@H](C)C2)cc1.Cl	
163 to 166	Cc1nc2cc(F)ccc2c(=O)n1-c1ccc(OC2CCN(C3CCC3)CC2)cc1 [Example 233, 3-{4-[(1-cyclobutylpiperidin-4-yl)oxy]phenyl}-7-fluoro-2-methyl-4(3H)-quinazolinone]	
238 to 250	Cc1nc2ccncc2c(=O)n1-c1ccc(OCCCN2CCC[C@H]2C)cc1 [Example 266, 2-methyl-3-(4-{3-[(2R)-2-methylpyrrolidin-1-yl]propoxy}phenyl)pyrido[4,3-d]pyrimidin-4(3H)-one]	
	CCc1nc2ccccc2c(=O)n1-c1ccc(OCCCN2CCCCC2)cc1 [Example 1, 2-ethyl-3-{4-[3-(1-piperidinyl)propoxy]phenyl}-4(3H)-quinazolinone]	IC50 ([1]; [3H]N-α-methylhistamine, preparation from histamine H3 receptor expression cells, 50 mM Tris pH 7.4, 25° C., 2 hours, read-out: 50% inhibition concentration (IC50 value) with respect to specific N-α-methylhistamine linkages): 0.015 µM; binding of N-α-methylhistamine to the histamine H3 receptor ([1]; summary in words of the binding test): strongly prevented binding; increase in drinking water amount due to R-α-methylhistamine administered to the ventriculus tertius [2]: significantly suppressed; bioavailability [3]: 60%; half-life ([3]; read-out: half-life in blood (converted)): 6.3 h; intracerebral concentration [4]: 3.16 nmol/g; concentration at 2 h ([4]; cerebrospinal fluid, read-out: cerebrospinal fluid concentration): 142 nM; concentration at 2 h ([4]; plasma, read-out: plasma concentration): 2320 nM
169 to 171	Cc1nc2cnccc2c(=O)n1-c1ccc(OC2CCN(C3CCC3)CC2)cc1 [Example 114, 3-{4-[(1-cyclobutyl-4-piperidinyl)oxy]phenyl}-2-methylpyrido[3,4-d]pyrimidin-4(3H)-one]	
94 to 96	COc1ccc2c(=O)n(-c3ccc(OCCCN4CCC[C@H](C)C4)cc3)c(C)nc2c1 [Example 170, 7-methoxy-2-methyl-3-(4-{3-[(3S)-3-methyl-piperidin-1-yl]propoxy}phenyl)-4(3H)-quinazolinone]	
255 to 262	Cc1nc2ncccc2c(=O)n1-c1ccc(OCCCN2CCC[C@H](C)C2)cc1.Cl	
102 to 106	COc1ccc2nc(C)n(-c3ccc(OCCCN4CCC[C@@H]4C)cc3)c(=O)c2c1 [Example 144, 6-methoxy-2-methyl-3-(4-{3-[(2S)-2-methylpyrrolidin-1-yl]propoxy}phenyl)-4(3H)-quinazolinone]	
186 to 189	CCc1nc2ccncc2c(=O)n1-c1ccc(OC2CCN(C3CCC3)CC2)cc1 [Example 109, 3-{4-[(1-cyclobutyl-4-piperidinyl)oxy]phenyl}-2-ethylpyrido[4,3-d]pyrimidin-4(3H)-one]	
123 to 126	COc1cc2c(=O)n(-c3ccc(OCCCN4CCCC4)cc3)c(C)nc2cn1 [Example 200, 6-methoxy-2-methyl-3-[4-(3-pyrrolidin-1-ylpropoxy)phenyl]pyrido[3,4-d]-pyrimidin-4(3H)-one]	
161 to 163	Cc1nc2cnc(F)cc2c(=O)n1-c1ccc(OC2CCN(C3CCC3)CC2)cc1 [Example 230, 3-{4-[(1-cyclobutyl-piperidin-4-yl)oxy]phenyl}-6-fluoro-2-methylpyrido[3,4-d]pyrimidin-4(3H)-one]	
177 to 179	Cc1nc2c(F)cccc2c(=O)n1-c1ccc(OC2CCN(C3CCC3)CC2)cc1 [Example 242, 3-{4-[(1-cyclobutylpiperidin-4-yl)oxy]phenyl}-8-fluoro-2-methyl-4(3H)-quinazolinone]	
122 to 125	Cc1nc2ccc(F)cc2c(=O)n1-c1ccc(OC2CCN(C3CCC3)CC2)cc1 [Example 232, 3-{4-[(1-cyclobutylpiperidin-4-yl)oxy]phenyl}-6-fluoro-2-methyl-4(3H)-quinazolinone]	
145 to 147	COc1cc2c(=O)n(-c3ccc(OCCCN4CCCCC4)cc3)c(C)nc2cn1 [Example 199, 6-methoxy-2-methyl-3-[4-(3-piperidin-1-ylpropoxy)phenyl]pyrido[3,4-d]pyrimidin-4(3H)-one]	
141 to 145	Cc1nc2cccc(F)c2c(=O)n1-c1ccc(OCCCN2CCCCC2)cc1 [Example 26, 5-fluoro-2-methyl-3-{4-[3-(1-piperidinyl)propoxy]phenyl}-4(3H)-quinazolinone]	
144 to 146	COc1cccc2nc(C)n(-c3ccc(OCCCN4CCC[C@H](C)C4)cc3)c(=O)c12 [Example 164, 5-methoxy-2-methyl-3-(4-{3-[(3S)-3-methylpiperidin-1-yl]propoxy}phenyl)-4(3H)-quinazolinone]	
125 to 127	Cc1nc2cccc(F)c2c(=O)n1-c1ccc(OCCCN2CCC[C@H]2C)cc1 [Example 260, 5-fluoro-2-methyl-3-(4-{3-[(2R)-2-methylpyrrolidin-1-yl]propoxy}phenyl)-4(3H)-quinazolinone]	
136 to 138	COc1ccc2nc(C)n(-c3ccc(OCCCN4CCCCC4)cc3)c(=O)c2c1 [Example 36, 6-methoxy-2-methyl-3-{4-[3-(1-piperidinyl)propoxy]phenyl}-4(3H)-quinazolinone]	
106 to 108	COc1ccc2nc(C)n(-c3ccc(OCCCN4CCC[C@H]4C)cc3)c(=O)c2c1 [Example 172, 6-methoxy-2-methyl-3-(4-{3-[(2R)-2-methylpyrrolidin-1-yl]propoxy}phenyl)-4(3H)-quinazolinone]	
146 to 148	CCc1nc2ncccc2c(=O)n1-c1ccc(OC2CCN(C3CCC3)CC2)cc1 [Example 111, 3-{4-[(1-cyclobutyl-4-piperidinyl)oxy]phenyl}-2-ethylpyrido[2,3-d]pyrimidin-4(3H)-one]	
171 to 173	COc1ccc2nc(C)n(-c3ccc(OC4CCN(C5CCC5)CC4)cc3)c(=O)c2c1 [Example 228, 3-{4-[(1-cyclobutylpiperidin-4-yl)oxy]phenyl}-6-methoxy-2-methyl-4(3H)-quinazolinone]	
140 to 143	Cc1nc2ccncc2c(=O)n1-c1ccc(OC2CCN(C3CCCC3)CC2)cc1 [Example 101, 3-{4-[(1-cyclopentyl-4-piperidinyl)oxy]phenyl}-2-methylpyrido[4,3-d]pyrimidin-4(3H)-one]	
